LC50 data for 2 compounds are collected here from ChEMBL document CHEMBL4196143, “Total Synthesis and Structure Revision of Palmarumycin B6” (2018).

For the experiment, the system named is Aedes albopictus. Put plainly: Larvicidal activity against Aedes albopictus assessed as […] larval mortality after 24 hrs. Format: functional.

What is called LC50 is the concentration that kills 50% of the test population. With `O=C1CCC2(Oc3cccc4cccc(c34)O2)c2c(Cl)ccc(O)c21`, the median lethal concentration (LC50) amounted to 227 µM.
In the case of `O=C1CCC2(Oc3cccc4cccc(c34)O2)c2ccc(Cl)c(O)c21`, the LC50 came to 32.7 µM.
